Test results taken from patent publication US9695155B2, “Herbicidal substituted pyrimidinyloxy benzene compounds” (E. I. DU PONT DE NEMOURS AND COMPANY, priority 2013, dated 2017).

Tests used:
kochia [1] = test: Test F preemergence; assay type: in vivo, Kochia scoparia; conditions: 21 days, scale 0 to 100
Text: (§1) Seeds of plant species selected from bermudagrass (Cynodon dactylon), surinam grass (Brachiaria decumbens), large (Lg) crabgrass (Digitaria sanguinalis), crabgrass, naked (naked crabgrass, Digitaria nuda), foxtail, green (green foxtail, Setaria viridis), johnsongrass (Sorghum halepense), kochia (Kochia scoparia), morningglory (pitted morningglory, Ipomoea lacunosa), nutsedge, purple (purple nutsedge, Cyperus rotundus), ragweed (common ragweed, Ambrosia elatior), mustard, black (black mustard, Brassica nigra), guineagrass (Panicum maximum), dallisgrass (Paspalum dilatatum), barnyardgrass (Echinochloa crus-galli), sandbur (southern sandbur, Cenchrus echinatus), sowthistle (common sowthistle, Sonchus oleraceous), Italian ryegrass (Lolium multiflorum), signalgrass (broadleaf signalgrass, Brachiaria platyphylla), dayflower (Virginia (VA) dayflower, Commelina virginica), bluegrass (annual bluegrass, Poa annua), quackgrass (Elytrigia repens), mallow (common mallow, Malva sylvestris), buckwheat, wild (wild buckwheat, Polygonum convolvulus), leafy spurge (Euphorbia esula), chickweed (common chickweed, Stellaria media), wild poinsettia (Euphorbia heterophylla), and pigweed (Amaranthus retroflexus) were planted into a blend of loam soil and sand and treated preemergence with test chemicals formulated in a non-phytotoxic solvent mixture which included a surfactant.
(§2) Treated plants and controls were maintained in a greenhouse for 21 days, after which time all species were compared to controls and visually evaluated. Plant response ratings, summarized in Table F, are based on a scale of 0 to 100 where 0 is no effect and 100 is complete control. A dash (-) response means no test result.

field poppy = test: Test D postemergence; assay type: in vivo, Papaver rhoeas; conditions: Papaver rhoeas, post-emergence
Text: (§3) Seeds of plant species selected from bluegrass (annual bluegrass, Poa annua), blackgrass (Alopecurus myosuroides), canarygrass (littleseed canarygrass, Phalaris minor), chickweed (common chickweed, Stellaria media), galium (catchweed bedstraw, Galium aparine), bromegrass, downy (downy bromegrass, Bromus tectorum), field poppy (Papaver rhoeas), field violet (Viola arvensis), green foxtail (Setaria viridis), deadnettle (henbit deadnettle, Lamium amplexicaule), Italian ryegrass (Lolium multiflorum), kochia (Kochia scoparia), lambsquarters (Chenopodium album), oilseed rape (Brassica napus), pigweed (Amaranthus retroflexus), chamomile (scentless chamomile, Matricaria inodora), Russian thistle (Salsola kali), speedwell (bird's-eye speedwell, Veronica persica), spring barley (Hordeum vulgare), spring wheat (Triticum aestivum), wild buckwheat (Polygonum convolvulus), wild mustard (Sinapis arvensis), wild oat (Avena fatua), wild radish (Raphanus raphanistrum), windgrass (Apera spica-venti), winter barley (Hordeum vulgare), and winter wheat (Triticum aestivum) were planted into a silt loam soil and treated preemergence with test chemicals formulated in a non-phytotoxic solvent mixture which included a surfactant.
(§4) At the same time, these species were planted in pots containing Redi-Earth® planting medium (Scotts Company, 14111 Scottslawn Road, Marysville, Ohio 43041) comprising spaghnum peat moss, vermiculite, wetting agent and starter nutrients and treated with postemergence applications of the test chemicals formulated in the same manner. Plants ranged in height from 2 to 18 cm (1- to 4-leaf stage). Treated plants and controls were maintained in a controlled growth environment for 7 to 21 days after which time all species were compared to controls and visually evaluated. Plant response ratings, summarized in Table D, are based on a scale of 0 to 100 where 0 is no effect and 100 is complete control. A dash (-) response means no test result.

[2] = system: morningglory (pitted morningglory); test: Test F preemergence; assay type: in vivo, Ipomoea lacunosa; conditions: 21 days, scale 0 to 100
Method in brief: (§5)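 Seeds were sown in a loam soil–sand blend and treated preemergence with compounds formulated in a non-phytotoxic solvent mixture containing surfactant. Pots were kept in a greenhouse for 21 days, then visually rated against untreated controls on a 0–100 scale (0 = no effect, 100 = complete control).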

dayflower = test: Test F preemergence; assay type: in vivo, Commelina virginica; conditions: 21 days, scale 0 to 100
Method in brief: as §5

kochia [3] = test: Test D preemergence; assay type: in vivo, Kochia scoparia; conditions: Bassia scoparia, pre-emergence
Method in brief: (§6)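 In a controlled growth environment, treated and control plants were held 7 to 21 days, then compared visually. Damage was scored 0–100, where 100 means complete control. Sprays contained surfactant in a non-phytotoxic solvent; post-applied plants were at the 1- to 4-leaf stage.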

wild oat = test: Test D postemergence; assay type: in vivo, Avena fatua; conditions: Avena fatua, post-emergence
Text: as §3, §4

winter barley = test: Test D postemergence; assay type: in vivo, Hordeum vulgare; conditions: Hordeum vulgare, post-emergence, Postemergence, scale 0 to 100 (0 no effect, 100 complete control), read-out: Plant response rating, Barley, Winter
Method in brief: as §6

spring barley = test: Test D postemergence; assay type: in vivo, Hordeum vulgare; conditions: Hordeum vulgare, post-emergence, Postemergence, scale 0 to 100 (0 no effect, 100 complete control), read-out: Plant response rating, Barley, Spring
Method in brief: as §6

deadnettle = test: Test D preemergence; assay type: in vivo, Lamium amplexicaule; conditions: Lamium amplexicaule, pre-emergence
Text: as §3, §4

quackgrass = test: Test F preemergence; assay type: in vivo, Elytrigia repens; conditions: 21 days, scale 0 to 100
Text: as §1, §2

sowthistle = test: Test F preemergence; assay type: in vivo, Sonchus oleraceous; conditions: 21 days, scale 0 to 100
Text: as §1, §2

canarygrass = test: Test D postemergence; assay type: in vivo, Phalaris minor; conditions: Phalaris minor, post-emergence
Text: as §3, §4

lambsquarters = test: Test D postemergence; assay type: in vivo, Chenopodium album; conditions: Chenopodium album, post-emergence
Method in brief: as §6

SMILES: N#Cc1cccc(Oc2ncc(Cl)cn2)c1-n1cc(OCC(F)(F)F)cn1 [Compound 274, 3-[(5-chloro-2-pyrimidinyl)oxy]-2-[4-(2,2,2-trifluoroethoxy)-1H-pyrazol-1-yl]benzonitrile]
- Plant response rating, Kochia (kochia [1]; 16 g ai/ha): 100
- Plant response rating, Kochia (kochia [1]; 31 g ai/ha): 100
- Plant response rating, Kochia (kochia [1]; 62 g ai/ha): 100
- Plant response rating, Kochia (kochia [1]; 125 g ai/ha): 100
- Plant response rating, Kochia (kochia [1]; 250 g ai/ha): 100
- pest or weed control at 16 g/ha (field poppy; 16 g ai/ha, scale 0-100, read-out: Plant response rating, Field Poppy): 25%
- pest or weed control at 31 g/ha (field poppy; 31 g ai/ha, scale 0 to 100 (0 no effect, 100 complete control), read-out: Plant response rating, Field Poppy): 40%
- pest or weed control at 62 g/ha (field poppy; 62 g ai/ha, scale 0 to 100 (0 no effect, 100 complete control), read-out: Plant response rating, Field Poppy): 40%
- pest or weed control at 125 g/ha (field poppy; 125 g ai/ha, scale 0 to 100 (0 no effect, 100 complete control), read-out: Plant response rating, Field Poppy): 80%
- Plant response rating, Morningglory ([2]; 16 g ai/ha): 35
- Plant response rating, Morningglory ([2]; 31 g ai/ha): 50
- Plant response rating, Morningglory ([2]; 62 g ai/ha): 65
- Plant response rating, Morningglory ([2]; 125 g ai/ha): 98
- Plant response rating, Morningglory ([2]; 250 g ai/ha): 100
- Plant response rating, Dayflower, VA (dayflower; 16 g ai/ha): 90
- Plant response rating, Dayflower, VA (dayflower; 31 g ai/ha): 95
- Plant response rating, Dayflower, VA (dayflower; 62 g ai/ha): 98
- Plant response rating, Dayflower, VA (dayflower; 125 g ai/ha): 100
- Plant response rating, Dayflower, VA (dayflower; 250 g ai/ha): 100
- pest or weed control at 16 g/ha (kochia [3]; 16 g ai/ha, scale 0 (no effect) to 100 (complete control), read-out: Plant response rating, Kochia): 0%
- pest or weed control at 31 g/ha (kochia [3]; 31 g ai/ha, scale 0-100, read-out: Plant response rating, Kochia): 70%
- pest or weed control at 62 g/ha (kochia [3]; 62 g ai/ha, scale 0-100, read-out: Plant response rating, Kochia): 65%
- pest or weed control at 125 g/ha (kochia [3]; 125 g ai/ha, scale 0-100, read-out: Plant response rating, Kochia): 100%
- pest or weed control at 16 g/ha (wild oat; 16 g ai/ha, scale 0-100, read-out: Plant response rating, Oat, Wild): 20%
- pest or weed control at 31 g/ha (wild oat; 31 g ai/ha, scale 0 to 100 (0 no effect, 100 complete control), read-out: Plant response rating, Oat, Wild): 30%
- pest or weed control at 62 g/ha (wild oat; 62 g ai/ha, scale 0 to 100 (0 no effect, 100 complete control), read-out: Plant response rating, Oat, Wild): 35%
- pest or weed control at 125 g/ha (wild oat; 125 g ai/ha, scale 0 to 100 (0 no effect, 100 complete control), read-out: Plant response rating, Oat, Wild): 40%
- plant injury at 16 g/ha (winter barley; 16 g ai/ha): 10%
- plant injury at 31 g/ha (winter barley; 31 g ai/ha): 20%
- plant injury at 62 g/ha (winter barley; 62 g ai/ha): 25%
- plant injury at 125 g/ha (winter barley; 125 g ai/ha): 30%
- plant injury at 16 g/ha (spring barley; 16 g ai/ha): 20%
- plant injury at 31 g/ha (spring barley; 31 g ai/ha): 25%
- plant injury at 62 g/ha (spring barley; 62 g ai/ha): 30%
- plant injury at 125 g/ha (spring barley; 125 g ai/ha): 35%
- pest or weed control at 16 g/ha (deadnettle; 16 g ai/ha, scale 0 (no effect) to 100 (complete control), read-out: Plant response rating, Deadnettle): 55%
- pest or weed control at 31 g/ha (deadnettle; 31 g ai/ha, scale 0-100, read-out: Plant response rating, Deadnettle): 100%
- pest or weed control at 62 g/ha (deadnettle; 62 g ai/ha, scale 0-100, read-out: Plant response rating, Deadnettle): 100%
- pest or weed control at 125 g/ha (deadnettle; 125 g ai/ha, scale 0-100, read-out: Plant response rating, Deadnettle): 100%
- Plant response rating, Quackgrass (quackgrass; 16 g ai/ha): 40
- Plant response rating, Quackgrass (quackgrass; 31 g ai/ha): 40
- Plant response rating, Quackgrass (quackgrass; 62 g ai/ha): 70
- Plant response rating, Quackgrass (quackgrass; 125 g ai/ha): 85
- Plant response rating, Quackgrass (quackgrass; 250 g ai/ha): 98
- Plant response rating, Sowthistle (sowthistle; 16 g ai/ha): 100
- Plant response rating, Sowthistle (sowthistle; 31 g ai/ha): 100
- Plant response rating, Sowthistle (sowthistle; 62 g ai/ha): 100
- Plant response rating, Sowthistle (sowthistle; 125 g ai/ha): 100
- Plant response rating, Sowthistle (sowthistle; 250 g ai/ha): 100
- pest or weed control at 16 g/ha (canarygrass; 16 g ai/ha, scale 0-100, read-out: Plant response rating, Canarygrass): 15%
- pest or weed control at 31 g/ha (canarygrass; 31 g ai/ha, scale 0 to 100 (0 no effect, 100 complete control), read-out: Plant response rating, Canarygrass): 20%
- pest or weed control at 62 g/ha (canarygrass; 62 g ai/ha, scale 0 to 100 (0 no effect, 100 complete control), read-out: Plant response rating, Canarygrass): 25%
- pest or weed control at 125 g/ha (canarygrass; 125 g ai/ha, scale 0 to 100 (0 no effect, 100 complete control), read-out: Plant response rating, Canarygrass): 30%
- pest or weed control at 16 g/ha (lambsquarters; 16 g ai/ha, scale 0-100, read-out: Plant response rating, Lambsquarters): 75%
- pest or weed control at 31 g/ha (lambsquarters; 31 g ai/ha, scale 0 to 100 (0 no effect, 100 complete control), read-out: Plant response rating, Lambsquarters): 80%
- pest or weed control at 62 g/ha (lambsquarters; 62 g ai/ha, scale 0 to 100 (0 no effect, 100 complete control), read-out: Plant response rating, Lambsquarters): 95%
- pest or weed control at 125 g/ha (lambsquarters; 125 g ai/ha, scale 0 to 100 (0 no effect, 100 complete control), read-out: Plant response rating, Lambsquarters): 95%
